test system: arachidonic acid-induced pulmonary embolism; assay: Inhibiting effect on arachidonic acid-induced pulmonary embolism (in vivo); conditions: Mus musculus, 3 h; oral administration in aqueous CMC to fasted ddY-male mice; arachidonic acid (125 mg/10ml/kg) into tail vein three hours later; dose required to induce at least 15 % decrease in recovery time of locomotive activity vs control; read-out: Minimum effective dose
Description: [Inhibiting effect on arachidonic acid-induced pulmonary embolism (in vivo)]
An aqueous carboxymethylcellulose (hereinafter referred to as "CMC") solution containing a test compound (20 ml/kg) was orally administered to ddY-male mice (8 mice per group) fasted overnight.

`CC(Cc1ccc(NCC(=O)O)cc1)NS(=O)(=O)c1ccc(Cl)cc1` (stereo not shown) [Example 2] and `CC(CNS(=O)(=O)c1ccc(Cl)cc1)c1ccc(NCC(=O)NCCC(=O)O)cc1` (stereo not shown) [Example 3] are the same in minimal effective dose: 1 mg/kg for the first, 1 mg/kg for the second.

First: CC(CNS(=O)(=O)c1ccc(Cl)cc1)c1ccc(NCC(=O)NCCCC(=O)O)cc1 (stereo not shown) [Example 4]
Second: O=C([O-])CNc1ccc(CCNS(=O)(=O)c2ccccc2)cc1.[Na+] [Known compound, Sodium N-[4-(2-benzenesulfonylaminoethyl)phenyl]glycinate, reference compound]
The minimal effective dose of the first is 3.3-fold lower: 3 mg/kg for the first, 10 mg/kg for the second.

Source: patent EP0375557A1, “Glycine derivative process for preparation thereof, and pharmaceutical composition containing it” (TANABE SEIYAKU CO., LTD., priority 1988, dated 1990)
